Reference: patent US20230085307A1, “PYRIDAZINONE COMPOUND AND HERBICIDE” (NISSAN CHEMICAL CORPORATION, priority 2019, published 2023)

What was measured:
chickweed [1] = experiment: Test Example 5: herbicidal effect by foliage application, plastic box (Table 20, symbol P); type: in vivo, common chickweed (Stellaria media); settings: foliage application, 320 g/ha
Outline: (§1)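 Plants sown in sterilized diluvial soil and grown 14 days in a greenhouse at 25° C to 30° C, then sprayed on the foliage with the compound's emulsion diluted in water to a predetermined herbicide amount. Injury to weeds and crops scored three weeks after application on a visual rating scale.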

wild oat [2] = experiment: Test Example 4: herbicidal effect by soil treatment (Table 19, symbol I); type: in vivo, wild oat (Avena fatua); settings: amount of applied herbicide 320 g/ha
Outline: (§2)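 Three weeks of greenhouse growth at 25° C. to 30° C. followed a uniform surface spray of water-diluted emulsion at a predetermined herbicide amount. Seeds had been sown beforehand under about 1.5 cm of sterilized diluvial soil. Grading followed criteria set out in an earlier test.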

green foxtail [3] = experiment: Test Example 5: herbicidal effect by foliage application, plastic box (Table 20, symbol G); type: in vivo, green foxtail (Setaria viridis); settings: foliage application, 320 g/ha
Outline: as §1

wild oat [4] = experiment: Test Example 5: herbicidal effect by foliage application, plastic box (Table 20, symbol I); type: in vivo, wild oat (Avena fatua); settings: foliage application, 320 g/ha
Outline: as §1

blackgrass [5] = experiment: Test Example 4: herbicidal effect by soil treatment (Table 19, symbol J); type: in vivo, blackgrass (Alopecurus myosuroides); settings: amount of applied herbicide 320 g/ha
Outline: as §2

persian speedwell [6] = experiment: Test Example 5: herbicidal effect by foliage application, plastic box (Table 20, symbol R); type: in vivo, Persian speedwell (Veronica persica); settings: foliage application, 320 g/ha
Outline: as §1

southern crabgrass [7] = experiment: Test Example 4: herbicidal effect by soil treatment (Table 19, symbol F); type: in vivo, southern crabgrass (Digitaria ciliaris); settings: amount of applied herbicide 320 g/ha
Outline: as §2

rice flat sedge = experiment: Test Example 3: herbicidal effect by foliage application, Wagner pot (Table 18, symbol E); type: in vivo, rice flat sedge (Cyperus iria)
Outline: (§3)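 Plants were sown in alluvial soil held under 0.1–0.5 cm standing water and grown 14 days in a greenhouse at 25–30 °C. An emulsifiable formulation, water-diluted to the set dose, was then sprayed onto the foliage, and effects were scored three weeks later using previously defined criteria.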

redroot pigweed [8] = experiment: Test Example 4: herbicidal effect by soil treatment (Table 19, symbol N); type: in vivo, redroot pigweed (Amaranthus retroflexus); settings: amount of applied herbicide 320 g/ha
Outline: as §2

Italian ryegrass [9] = experiment: Test Example 5: herbicidal effect by foliage application, plastic box (Table 20, symbol K); type: in vivo, Italian ryegrass (Lolium multiflorum); settings: foliage application, 320 g/ha
Outline: as §1

lambsquarters [10] = experiment: Test Example 5: herbicidal effect by foliage application, plastic box (Table 20, symbol O); type: in vivo, lambsquarters (Chenopodium album); settings: foliage application, 320 g/ha
Outline: as §1

Italian ryegrass [11] = experiment: Test Example 4: herbicidal effect by soil treatment (Table 19, symbol K); type: in vivo, Italian ryegrass (Lolium multiflorum); settings: amount of applied herbicide 320 g/ha
Outline: as §2

lambsquarters [12] = experiment: Test Example 4: herbicidal effect by soil treatment (Table 19, symbol O); type: in vivo, lambsquarters (Chenopodium album); settings: amount of applied herbicide 320 g/ha
Outline: as §2

windgrass [13] = experiment: Test Example 4: herbicidal effect by soil treatment (Table 19, symbol L); type: in vivo, windgrass (Apera spica-venti); settings: amount of applied herbicide 320 g/ha
Outline: as §2

barnyard grass [14] = experiment: Test Example 4: herbicidal effect by soil treatment (Table 19, symbol H); type: in vivo, barnyard grass (Echinochloa crus-galli); settings: amount of applied herbicide 320 g/ha
Outline: as §2

redroot pigweed [15] = experiment: Test Example 5: herbicidal effect by foliage application, plastic box (Table 20, symbol N); type: in vivo, redroot pigweed (Amaranthus retroflexus); settings: foliage application, 320 g/ha
Outline: as §1

windgrass [16] = experiment: Test Example 5: herbicidal effect by foliage application, plastic box (Table 20, symbol L); type: in vivo, windgrass (Apera spica-venti); settings: foliage application, 320 g/ha
Outline: as §1

barnyard grass [17] = experiment: Test Example 5: herbicidal effect by foliage application, plastic box (Table 20, symbol H); type: in vivo, barnyard grass (Echinochloa crus-galli); settings: foliage application, 320 g/ha
Outline: as §1

blackgrass [18] = experiment: Test Example 5: herbicidal effect by foliage application, plastic box (Table 20, symbol J); type: in vivo, blackgrass (Alopecurus myosuroides); settings: foliage application, 320 g/ha
Outline: as §1

green foxtail [19] = experiment: Test Example 4: herbicidal effect by soil treatment (Table 19, symbol G); type: in vivo, green foxtail (Setaria viridis); settings: amount of applied herbicide 320 g/ha
Outline: as §2

Chinese sprangletop = experiment: Test Example 3: herbicidal effect by foliage application, Wagner pot (Table 18, symbol D); type: in vivo, chinese sprangletop (Leptochloa chinensis)
Outline: as §3

barnyard grass [20] = experiment: Test Example 3: herbicidal effect by foliage application, Wagner pot (Table 18, symbol H); type: in vivo, barnyard grass (Echinochloa crus-galli)
Outline: as §3

velvetleaf [21] = experiment: Test Example 4: herbicidal effect by soil treatment (Table 19, symbol M); type: in vivo, velvetleaf (Abutilon theophrasti); settings: amount of applied herbicide 320 g/ha
Outline: as §2

false cleavers [22] = experiment: Test Example 4: herbicidal effect by soil treatment (Table 19, symbol Q); type: in vivo, false cleavers (Galium spurium); settings: amount of applied herbicide 320 g/ha
Outline: as §2

chickweed [23] = experiment: Test Example 4: herbicidal effect by soil treatment (Table 19, symbol P); type: in vivo, common chickweed (Stellaria media); settings: amount of applied herbicide 320 g/ha
Outline: as §2

southern crabgrass [24] = experiment: Test Example 5: herbicidal effect by foliage application, plastic box (Table 20, symbol F); type: in vivo, southern crabgrass (Digitaria ciliaris); settings: foliage application, 320 g/ha
Outline: as §1

velvetleaf [25] = experiment: Test Example 5: herbicidal effect by foliage application, plastic box (Table 20, symbol M); type: in vivo, velvetleaf (Abutilon theophrasti); settings: foliage application, 320 g/ha
Outline: as §1

persian speedwell [26] = experiment: Test Example 4: herbicidal effect by soil treatment (Table 19, symbol R); type: in vivo, Persian speedwell (Veronica persica); settings: amount of applied herbicide 320 g/ha
Outline: as §2

false cleavers [27] = experiment: Test Example 5: herbicidal effect by foliage application, plastic box (Table 20, symbol Q); type: in vivo, false cleavers (Galium spurium); settings: foliage application, 320 g/ha
Outline: as §1

[28] = evaluated three weeks after application
[29] = amount of applied herbicide 320 g/ha

## CON=C(C)c1ccc(-c2sc3ccccc3c2-c2c(O)c(C)nn(C)c2=O)cc1 [1-043]
Chickweed [1]; three weeks after application
  herbicidal effect grade, P: chickweed: 5 (Herbicidal rate of 90% or more (almost completely withered))
Wild oat [2]
  herbicidal effect rating, I: wild oat: 0 (Herbicidal rate of 5% or less (almost no effect))
Green foxtail [3]; three weeks after application
  herbicidal effect grade, G: green foxtail: 4 (Herbicidal rate of 70% or more and less than 90%)
Wild oat [4]; three weeks after application
  herbicidal effect grade, I: wild oat: 2 (Herbicidal rate of 20% or more and less than 40%)
Blackgrass [5]
  herbicidal effect rating, J: blackgrass: 0 (Herbicidal rate of 5% or less (almost no effect))
Persian speedwell [6]; three weeks after application
  herbicidal effect grade, R: persian speedwell: 5 (Herbicidal rate of 90% or more (almost completely withered))
Southern crabgrass [7]
  herbicidal effect rating, F: southern crabgrass: 0 (Herbicidal rate of 5% or less (almost no effect))
Rice flat sedge; 320 g/ha
  herbicidal effect on E (rice flat sedge), rating 0-5: 0 (Herbicidal rate of 5% or less (almost no effect))
Redroot pigweed [8]
  herbicidal effect rating, N: redroot pigweed: 5 (Herbicidal rate of 90% or more (almost completely withered))
Italian ryegrass [9]; three weeks after application
  herbicidal effect grade, K: Italian ryegrass: 5 (Herbicidal rate of 90% or more (almost completely withered))
Lambsquarters [10]; three weeks after application
  herbicidal effect grade, O: lambsquarters: 4 (Herbicidal rate of 70% or more and less than 90%)
Italian ryegrass [11]
  herbicidal effect rating, K: Italian ryegrass: 5 (Herbicidal rate of 90% or more (almost completely withered))
Lambsquarters [12]
  herbicidal effect rating, O: lambsquarters: 5 (Herbicidal rate of 90% or more (almost completely withered))
Windgrass [13]
  herbicidal effect rating, L: windgrass: 0 (Herbicidal rate of 5% or less (almost no effect))
Barnyard grass [14]
  herbicidal effect rating, H: barnyard grass: 3 (Herbicidal rate of 40% or more and less than 70%)
Redroot pigweed [15]; three weeks after application
  herbicidal effect grade, N: redroot pigweed: 5 (Herbicidal rate of 90% or more (almost completely withered))
Windgrass [16]; three weeks after application
  herbicidal effect grade, L: windgrass: 1 (Herbicidal rate of 5% or more and less than 20%)
Barnyard grass [17]; three weeks after application
  herbicidal effect grade, H: barnyard grass: 3 (Herbicidal rate of 40% or more and less than 70%)
Blackgrass [18]; three weeks after application
  herbicidal effect grade, J: blackgrass: 4 (Herbicidal rate of 70% or more and less than 90%)
Green foxtail [19]
  herbicidal effect rating, G: green foxtail: 5 (Herbicidal rate of 90% or more (almost completely withered))
Chinese sprangletop; 320 g/ha
  herbicidal effect on D (Chinese sprangletop), rating 0-5: 5 (Herbicidal rate of 90% or more (almost completely withered))
Barnyard grass [20]; 320 g/ha
  herbicidal effect on H (barnyard grass), rating 0-5: 5 (Herbicidal rate of 90% or more (almost completely withered))
Velvetleaf [21]
  herbicidal effect rating, M: velvetleaf: 0 (Herbicidal rate of 5% or less (almost no effect))
False cleavers [22]
  herbicidal effect rating, Q: false cleavers: 0 (Herbicidal rate of 5% or less (almost no effect))
Chickweed [23]
  herbicidal effect rating, P: chickweed: 4 (Herbicidal rate of 70% or more and less than 90%)
Southern crabgrass [24]; three weeks after application
  herbicidal effect grade, F: southern crabgrass: 4 (Herbicidal rate of 70% or more and less than 90%)
Velvetleaf [25]; three weeks after application
  herbicidal effect grade, M: velvetleaf: 5 (Herbicidal rate of 90% or more (almost completely withered))
Persian speedwell [26]
  herbicidal effect rating, R: persian speedwell: 4 (Herbicidal rate of 70% or more and less than 90%)
False cleavers [27]; three weeks after application
  herbicidal effect grade, Q: false cleavers: 2 (Herbicidal rate of 20% or more and less than 40%)

## CCCCOc1ccc(-c2sc3ccc(Cl)cc3c2-c2c(OC(=O)CCC)c(C)nn(C)c2=O)cc1 [2-110]
Chickweed [1]; [28]
  herbicidal effect on P: chickweed: 2 (Herbicidal rate of 20% or more and less than 40%)
Wild oat [2]
  I: wild oat, herbicidal effect rating: 0 (Herbicidal rate of 5% or less (almost no effect))
Green foxtail [3]; [28]
  herbicidal effect on G: green foxtail: 0 (Herbicidal rate of 5% or less (almost no effect))
Wild oat [4]; [28]
  herbicidal effect on I: wild oat: 0 (Herbicidal rate of 5% or less (almost no effect))
Blackgrass [5]
  J: blackgrass, herbicidal effect rating: 0 (Herbicidal rate of 5% or less (almost no effect))
Persian speedwell [6]; [28]
  herbicidal effect on R: persian speedwell: 5 (Herbicidal rate of 90% or more (almost completely withered))
Southern crabgrass [7]
  F: southern crabgrass, herbicidal effect rating: 0 (Herbicidal rate of 5% or less (almost no effect))
Rice flat sedge; [29]
  herbicidal effect on E: rice flat sedge: 4 (Herbicidal rate of 70% or more and less than 90%)
Redroot pigweed [8]
  N: redroot pigweed, herbicidal effect rating: 0 (Herbicidal rate of 5% or less (almost no effect))
Italian ryegrass [9]; [28]
  herbicidal effect on K: Italian ryegrass: 0 (Herbicidal rate of 5% or less (almost no effect))
Lambsquarters [10]; [28]
  herbicidal effect on O: lambsquarters: 3 (Herbicidal rate of 40% or more and less than 70%)
Italian ryegrass [11]
  K: Italian ryegrass, herbicidal effect rating: 0 (Herbicidal rate of 5% or less (almost no effect))
Lambsquarters [12]
  O: lambsquarters, herbicidal effect rating: 0 (Herbicidal rate of 5% or less (almost no effect))
Windgrass [13]
  L: windgrass, herbicidal effect rating: 0 (Herbicidal rate of 5% or less (almost no effect))
Barnyard grass [14]
  H: barnyard grass, herbicidal effect rating: 0 (Herbicidal rate of 5% or less (almost no effect))
Redroot pigweed [15]; [28]
  herbicidal effect on N: redroot pigweed: 4 (Herbicidal rate of 70% or more and less than 90%)
Windgrass [16]; [28]
  herbicidal effect on L: windgrass: 0 (Herbicidal rate of 5% or less (almost no effect))
Barnyard grass [17]; [28]
  herbicidal effect on H: barnyard grass: 0 (Herbicidal rate of 5% or less (almost no effect))
Blackgrass [18]; [28]
  herbicidal effect on J: blackgrass: 0 (Herbicidal rate of 5% or less (almost no effect))
Green foxtail [19]
  G: green foxtail, herbicidal effect rating: 0 (Herbicidal rate of 5% or less (almost no effect))
Chinese sprangletop; [29]
  herbicidal effect on D: Chinese sprangletop: 4 (Herbicidal rate of 70% or more and less than 90%)
Barnyard grass [20]; [29]
  herbicidal effect on H: barnyard grass: 4 (Herbicidal rate of 70% or more and less than 90%)
Velvetleaf [21]
  M: velvetleaf, herbicidal effect rating: 0 (Herbicidal rate of 5% or less (almost no effect))
False cleavers [22]
  Q: false cleavers, herbicidal effect rating: 0 (Herbicidal rate of 5% or less (almost no effect))
Chickweed [23]
  P: chickweed, herbicidal effect rating: 0 (Herbicidal rate of 5% or less (almost no effect))
Southern crabgrass [24]; [28]
  herbicidal effect on F: southern crabgrass: 0 (Herbicidal rate of 5% or less (almost no effect))
Velvetleaf [25]; [28]
  herbicidal effect on M: velvetleaf: 3 (Herbicidal rate of 40% or more and less than 70%)
Persian speedwell [26]
  R: persian speedwell, herbicidal effect rating: 2 (Herbicidal rate of 20% or more and less than 40%)
False cleavers [27]; [28]
  herbicidal effect on Q: false cleavers: 3 (Herbicidal rate of 40% or more and less than 70%)
